Measurements taken from US20070026090A1, “Treatment and prevention of inflammatory disease and mitochondrial dysfunction with high dose selenium” (priority 2003, published 2007).
Read-outs that look alike come from different tables or passages of the source.

What was measured:
[1] = test system: Sp1; experiment: Sp1 protein (Western blot); type: cell-based, murine; conditions: FIG. 13B
Procedure: (§1) Western blots (Sp1, MnSOD, UCP2): Cells were grown in six-well tissue culture plates, treated with selenium for 72 h and activated with LPS and IFN-γ for 24 h. The wells were washed with PBS, scraped and centrifuged
(§2) (5 min. 2000 RPM), and lysed by addition of boiling hot lysis buffer (1% SDS, 1 mM sodium ortho-vanadate, 10 mM Tris pH 7.4) to the pellets. Protein content was measured (BIO RAD protein assay kit) and equalized. Sample buffer (containg SDS) was added and the samples were boiled. The samples were subjected to SDS-PAGE followed by western blot analysis. Separated proteins were transferred electrophoretically from the gel to a nitrocellulose membrane (Amersham International plc, Buckinghamshire, ENGLAND). The membrane was blocked in TBS (0.15 M NaCl/10 mM Tris/HCl, pH7.4) containing 5% (v/v) skimmed milk (Blotto), then incubated over night with primary antibodies at RT (diluted 1/2000 in blotto). After being washed six times in TBST [TBS containing 0.05% (v/v) Tween 20], the membrane was incubated for 2 h at room temperature with secondary antibody (diluted 1/5000 in blotto). Immunoreactive bands were detected with ECL western blotting detection reagents (Amersham Pharmacia Biotech, Buckingammshire England) and developed on film (Fuji super RX, Dusseldorf, Germany). […]

[2] = test system: MnSOD; experiment: MnSOD transcription and expression (RTPCR, Western blot); type: cell-based, murine
Procedure: (§3) Cell culture: Murine J774.2 macrophages (kindly provided by Prof. Dov Zipori from the Weizmann Institute of Science) were grown in RPMI medium supplemented with 10% (w/v) fetal calf serum, penicillin (100 U/ml), streptomycin (100 μg/ml) and 1× glutamine at 37° C. in a humidified atmosphere consisting of 95% air and 5% CO2. Experiments were performed on cells at 60% confluence.
as §1, §2
Right (antisense) 5′[…]-3′ (SEQ ID NO: 6) corresponding to nucleotides 622 to 640 of mouse mRNA region (GenBank Accession No. NM 013671). […] Actual PCR product was approximately 570 bp, measured on 1.25% agarose gel in TAE containing ethidium bromide.
PCR was performed with 28 cycles (25 cycles for GAPDH) of 30 seconds at 96° C., 30 seconds at 58° C. and 1 min at 72° C. RTPCR products were analyzed on 1.3% (w/v) agarose gels.

[3] = test system: J774.2 macrophages; experiment: Cell viability (PI exclusion, flow cytometry); type: cell-based, murine; conditions: 10 μM, activated cells
Procedure: (§4) Experiments were performed on cells at 60% confluence.
(§5) Determination of cell viability: Cell-membrane integrity was detected by flow cytometer (FACSort, Becton Dickenson and Co., San Jose, Calif. USA) as a measurement of cell viability. For this assay, the nonpermeant DNA-intercalating dye propidium iodide (PI), which is excluded by viable cells, was used. Fluorescence settings were excitation at 488 nm and emission at 575 nm. Data were collected from at least 10,000 cells.

[4] = Cell viability (PI exclusion, flow cytometry); type: cell-based, murine; conditions: mouse, J774.2 macrophages, 10 μM, 24 hour exposure
Procedure: as §4, §5

[5] = test system: 18S RNA and GAPDH; experiment: Housekeeping transcripts 18S and GAPDH in colon tissue (RT-PCR); type: in vivo, rat; conditions: supplemented rats (FIG. 7A)
[6] = test system: glutathione peroxidase (GPx); experiment: GPx activity in macrophage cell extract; type: cell-based, murine; conditions: 24 h; range 0.5-30 μM (FIG. 8B)
Procedure: as §3
GPx activity: GPx activity was determined by following the rate of NADPH oxidation at 340 nm in the presence of the substrates: 3 mM glutathione (GSH), 1.2 U glutathione reductase (GR) and 1.5% H2O2, using a microfluorometer plate reader (GENios, Tecan, Austria). The reaction contained 500 μl Tris reaction buffer (100 mM Tris Hcl, 300 mM Kcl, 5 mM EDTA, 1 mM NaN3, pH 7.0), substrates and 100 μl cell extract. Macrophages were treated with selenium for 24 h. Wells were washed twice with PBS, cells permeabilized, and scraped using 200 μl 0.2% Triton X-100. The reaction was recorded every minute for 25 minutes. Slopes were calculated and the results were adjusted according to the protein amount calculated with the Bradford reagent.

[7] = test system: J774.2 macrophages; experiment: Mitochondrial membrane potential (CMTMRos, flow cytometry); type: cell-based, murine; conditions: 10 μM; LPS + INFγ activated (FIG. 16B)
Procedure: as §3
Evaluation of mitochondrial membrane potential (MMP) in cells—MMP was detected by flow cytometry (FACSort, Becton Dickenson and Co., San Jose, Calif. USA) using the membrane potential-sensitive fluorescent probe MitoTracker Orange (CMTMRos) (Molecular Probes, Oregon, USA). The following fluorescence setting was used: excitation at 488 nm and emission at 575 nm (FL2 channel) (24,25). Macrophage cells (1 million cells/ml) were stained with 0.1 μM CMTMRos for 30 min at 37° C. Accumulation of the dye in the mitochondria was evaluated by flow cytometer analysis as described hereinabove. Data were collected from 10,000 cells.

[8] = in vivo; cited from earlier work

For `[Se]` [selenium], the “Sp-1 gene expression / synthesis (Western blot)” value [1] was “no change”, the “lowest concentration effective in significantly reducing MnSOD transcripts and protein” value ([2]; 24 and 72 hours, resting J774.2 (FIG. 9A, 9B)) was 0.5 µM and the “MnSOD expression, activated macrophages” value ([2]; exposure (72 hours) prior to activation, concentration dependent (FIG. 11)) was “decreased”. The “cell survival, simultaneous selenium exposure and activation” value ([3]; from 75% without selenium (FIG. 14A)) was 35%, the “cell survival, selenium following activation by 24 hours” value ([3]; from 75% without selenium (FIG. 14B)) was 55% and the cytotoxicity at 24 h, 10 μM ([4]; LPS + INFγ activated (FIG. 14A column c), read-out: decrease in viability, activated cells) was no more than 50%. The cytotoxicity at 24 h, 10 μM ([4]; not activated, read-out: decrease in viability, control cells) was 60%, the “18S and GAPDH transcription” value [5] was “without effecting” and the “concentration of maximum stimulation of GPx activity” value [6] was 0.5 µM. The “mitochondrial membrane potential (MMP), activated macrophages” value [7] was “downregulates” and the “average lifetime daily intake with biochemical and clinical symptoms” value [8] was “greater than 1000 microgram”.
